Structures can show the parent of a compound that is named as a salt.
Legend:
human PI3Kδ enzyme = target: T1, human PI3Kδ enzyme (Homo sapiens, UniProt O00329); test: PI3Kδ enzyme inhibitory activity (PI3-Kinase HTRF Assay kit); format: biochemical; conditions: human PI3Kδ 10 ng/well, ATP 30 μM, PIP2 10 μM, room temperature 30 minutes
T1 construct: purchased Millipore Corporation 14-604
Procedure: 1. PI3Kδ Enzyme Inhibitory Activity
For the experiment, a PI3-Kinase HTRF Assay kit (Millipore Corporation, Catalogue No. 33-016) and a human PI3Kδ enzyme (Millipore Corporation, Catalogue No. 14-604) were used. The measurement method was in accordance with the appended instructions. The overview thereof is as follows.
PI3Kδ (10 ng/well), phosphatidylinositol-4,5-bisphosphate (10 μM), ATP (30 μM), and the test compound were mixed in a 384-well plate (total 20 μL), and incubated at room temperature for 30 minutes. EDTA and biotinylated phosphatidylinositol-3,4,5-triphosphate were added thereto to stop the reaction. Thereafter, a Europium labeled anti-GST antibody, a GST bond GRP1 PH domain, and streptavidin-APC were added thereto, followed by incubation overnight. An HTRF ratio was measured using an HTRF plate reader.

[1] = tested on: Spleen cells prepared from male LEW/CrlCrlj rats (B cell proliferation); test: Rat B cell proliferation inhibition test (anti-rat IgM, [3H]thymidine); format: cell-based; conditions: anti-rat IgM 3 μg/well, 48 hours culture
Procedure: 4. Rat B Cell Proliferation Inhibition Test
Spleen cells (1.0×10^5 cells/well) prepared from male LEW/CrlCrlj rats (Charles River Laboratories, Japan, Inc.), mouse F(ab′)2 fragment anti-rat IgM (3 μg/well, SouthernBiotech Associates, Inc., Catalogue No. 3082-14) and the test compound dissolved in DMSO (final DMSO concentration 0.1%) were mixed in a 96-well plate using a 10% FCS-containing RPMI-1640 culture medium (total 200 μL). They were cultured in a CO2 incubator for 48 hours and [^3H]thymidine (925 GBq/mmol, Moravek Biochemicals, Inc., Catalogue No. MT6038) was added thereto at 0.037 MBq/well at 4 hours before completion of culture. Cells were harvested in a GF/C glass filter using a cell harvester, and a radioactivity on the filter was measured using a liquid scintillation counter.

Human PI3Kα = target: T2, Human PI3Kα (Homo sapiens, UniProt P42336); test: PI3Kα enzyme inhibitory activity (Kinase-Glo Plus luminescence); format: biochemical; conditions: human PI3Kα 12 ng/well, phosphatidylinositol 0.2 μg/well, 37° C. 3 hours
T2 construct: purchased Millipore Corporation 14-602
T2 sequence (P42336 whole entry): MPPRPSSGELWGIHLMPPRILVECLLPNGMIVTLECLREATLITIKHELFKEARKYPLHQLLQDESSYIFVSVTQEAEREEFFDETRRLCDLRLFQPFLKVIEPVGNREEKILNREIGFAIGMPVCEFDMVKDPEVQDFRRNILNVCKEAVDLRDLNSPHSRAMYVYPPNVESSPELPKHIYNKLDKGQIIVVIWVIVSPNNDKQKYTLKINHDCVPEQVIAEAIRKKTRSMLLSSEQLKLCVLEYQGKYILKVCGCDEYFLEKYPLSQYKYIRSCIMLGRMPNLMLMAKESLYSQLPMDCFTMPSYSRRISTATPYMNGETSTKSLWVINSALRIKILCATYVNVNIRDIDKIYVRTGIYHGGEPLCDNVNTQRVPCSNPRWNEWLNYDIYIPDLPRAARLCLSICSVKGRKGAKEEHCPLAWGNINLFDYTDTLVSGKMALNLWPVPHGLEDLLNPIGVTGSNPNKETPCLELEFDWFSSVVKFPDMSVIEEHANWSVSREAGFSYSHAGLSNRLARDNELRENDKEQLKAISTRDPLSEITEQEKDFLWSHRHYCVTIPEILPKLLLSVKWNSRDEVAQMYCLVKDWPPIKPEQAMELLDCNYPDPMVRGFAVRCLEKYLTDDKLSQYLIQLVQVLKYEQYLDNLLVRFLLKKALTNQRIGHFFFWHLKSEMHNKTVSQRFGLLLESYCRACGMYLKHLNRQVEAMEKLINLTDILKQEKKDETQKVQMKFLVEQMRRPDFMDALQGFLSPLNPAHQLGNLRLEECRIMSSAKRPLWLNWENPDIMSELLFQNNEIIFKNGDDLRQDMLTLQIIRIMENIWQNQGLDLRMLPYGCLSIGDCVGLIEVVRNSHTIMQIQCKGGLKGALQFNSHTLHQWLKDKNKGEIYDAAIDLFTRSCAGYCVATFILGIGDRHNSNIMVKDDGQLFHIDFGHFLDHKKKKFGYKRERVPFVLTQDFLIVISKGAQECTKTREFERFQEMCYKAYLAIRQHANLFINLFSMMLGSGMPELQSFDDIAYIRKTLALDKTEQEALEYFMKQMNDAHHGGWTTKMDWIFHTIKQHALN
T2 sequence (P27986 whole entry partner): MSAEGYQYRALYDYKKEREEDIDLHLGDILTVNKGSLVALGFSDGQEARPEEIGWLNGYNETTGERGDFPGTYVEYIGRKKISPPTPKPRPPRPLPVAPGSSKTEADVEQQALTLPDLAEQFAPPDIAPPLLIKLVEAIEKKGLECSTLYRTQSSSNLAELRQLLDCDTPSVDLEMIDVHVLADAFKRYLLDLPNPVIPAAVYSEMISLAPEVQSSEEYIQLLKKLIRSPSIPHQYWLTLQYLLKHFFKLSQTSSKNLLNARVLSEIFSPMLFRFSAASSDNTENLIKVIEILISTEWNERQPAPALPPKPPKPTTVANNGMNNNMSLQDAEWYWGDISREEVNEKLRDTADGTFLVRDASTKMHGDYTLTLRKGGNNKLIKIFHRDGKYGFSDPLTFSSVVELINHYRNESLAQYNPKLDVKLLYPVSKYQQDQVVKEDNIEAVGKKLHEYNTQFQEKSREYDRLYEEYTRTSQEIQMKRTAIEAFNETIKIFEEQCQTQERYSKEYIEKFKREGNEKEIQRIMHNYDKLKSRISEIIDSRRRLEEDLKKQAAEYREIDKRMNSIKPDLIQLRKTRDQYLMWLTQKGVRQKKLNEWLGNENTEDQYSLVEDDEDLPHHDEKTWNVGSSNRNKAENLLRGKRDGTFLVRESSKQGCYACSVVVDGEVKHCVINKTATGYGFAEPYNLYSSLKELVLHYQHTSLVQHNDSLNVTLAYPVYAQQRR
Procedure: 2. PI3Kα Enzyme Inhibitory Activity
Human PI3Kα (12 ng/well, Millipore Corporation, Catalogue No. 14-602), phosphatidylinositol (0.2 μg/well), and the test compound were mixed in a 384-well plate in a reaction buffer (50 mM Hepes, 10 mM NaCl, 10 mM MgCl2, 2 mM EGTA, 2 mM DTT, pH 7.3) (total 10 μl), and incubated at 37° C. for 3 hours. After the reaction, 10 μL of a Kinase-Glo Plus reagent (Promega, Catalogue No. V3772) was added thereto, and a luminescence was measured with a luminometer.

T1 sequence (O00329 whole entry): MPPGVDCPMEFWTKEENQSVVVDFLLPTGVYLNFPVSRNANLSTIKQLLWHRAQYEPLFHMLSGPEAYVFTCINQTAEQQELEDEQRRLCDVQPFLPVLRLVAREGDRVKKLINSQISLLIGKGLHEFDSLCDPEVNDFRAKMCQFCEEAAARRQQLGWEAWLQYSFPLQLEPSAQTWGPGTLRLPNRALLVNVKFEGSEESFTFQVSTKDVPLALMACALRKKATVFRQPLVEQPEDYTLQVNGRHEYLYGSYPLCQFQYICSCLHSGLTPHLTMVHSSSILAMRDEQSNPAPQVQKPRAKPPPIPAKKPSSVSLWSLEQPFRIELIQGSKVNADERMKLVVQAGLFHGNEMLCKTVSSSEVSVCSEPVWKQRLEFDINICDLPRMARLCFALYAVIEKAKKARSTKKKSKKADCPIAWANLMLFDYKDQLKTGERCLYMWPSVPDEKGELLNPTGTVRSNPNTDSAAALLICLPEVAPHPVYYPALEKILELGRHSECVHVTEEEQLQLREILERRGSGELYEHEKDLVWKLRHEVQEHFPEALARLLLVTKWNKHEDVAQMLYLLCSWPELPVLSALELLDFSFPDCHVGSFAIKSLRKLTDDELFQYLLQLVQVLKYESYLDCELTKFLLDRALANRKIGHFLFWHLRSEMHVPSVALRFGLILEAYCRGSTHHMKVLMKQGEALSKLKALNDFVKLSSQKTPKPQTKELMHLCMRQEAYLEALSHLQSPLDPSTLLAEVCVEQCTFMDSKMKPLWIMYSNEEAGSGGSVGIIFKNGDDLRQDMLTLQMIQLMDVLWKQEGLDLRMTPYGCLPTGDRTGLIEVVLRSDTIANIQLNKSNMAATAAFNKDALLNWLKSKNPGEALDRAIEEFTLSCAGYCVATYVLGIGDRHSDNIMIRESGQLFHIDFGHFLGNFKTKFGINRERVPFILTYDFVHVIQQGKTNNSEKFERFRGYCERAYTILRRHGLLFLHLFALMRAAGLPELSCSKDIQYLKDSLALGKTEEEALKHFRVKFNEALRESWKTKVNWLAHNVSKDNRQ
T1 sequence (P27986 whole entry partner): as the sequence (P27986 whole entry partner) above

| IC50 (human PI3Kδ enzyme) [nM] | IC50 (Human PI3Kα) [nM] | SMILES | IC50 [1] [nM] |
| --- | --- | --- | --- |
| 19 |  | CC(=O)N1CCC(CC(=O)N2CC(Nc3cc(-n4c(C(F)F)nc5ccccc54)nc(N4CCOCC4)n3)C2)CC1 [A564] | 2.2 |
| 10 | 2200 | O=C(C1CCOC1)N1CC[C@H](Nc2cc(-n3c(C(F)F)nc4ccccc43)nc(N3CCOCC3)n2)C1 (stereo partly drawn) [A464] |  |
| 27 | 3900 | FC(F)c1nc2ccccc2n1-c1cc(N2CCOCC2)nc(NCC2CCN(CC3CCOCC3)CC2)n1 [Example 39] |  |
| 18 | 4200 | FCC(CF)N1CCC(CNc2nc(N3CCOCC3)cc(-n3c(C(F)F)nc4ccccc43)n2)CC1 [Example 35] |  |
| 3.3 | 7300 | C[C@@H]1C[C@@H](N2CCC(CNc3nc(N4CCOCC4)cc(-n4c(C(F)F)nc5ccccc54)n3)CC2)C[C@H](C)O1 [Example 224] | 1.5 |
| 20 | > 10000 | FC(F)c1nc2ccccc2n1-c1cc(OCC2CCN(C3CCOCC3)CC2)nc(N2CCOCC2)n1 [Example 40] | 9 |
| 13 | > 10000 | NC1(C(=O)N[C@H]2CC[C@H](Oc3cc(-n4c(C(F)F)nc5ccccc54)nc(N4CCOCC4)n3)CC2)CCCC1 [Example 216] | 5.7 |
| 5.7 | > 3000 | CN(C)CC(=O)N[C@H]1CCC[C@H](Nc2cc(-n3c(C(F)F)nc4ccccc43)nc(N3CCOCC3)n2)C1 [Example 100] |  |
| 19 | 1800 | C[C@H]1COCCN1c1cc(-n2c(C(F)F)nc3ccccc32)nc(NC[C@H]2CCCN(C(=O)OC(C)(C)C)C2)n1 [Example 20] |  |
| 69 | > 10000 | CC(C)(C)OC(=O)N1CCC(CNc2nc(N3CCOC[C@@H]3CF)cc(-n3c(C(F)F)nc4ccccc43)n2)CC1 [Example 16] |  |
| 13 | 4900 | CN(CC(C)(C)O)C12CCC(CNc3nc(N4CCOCC4)cc(-n4c(C(F)F)nc5ccccc54)n3)(CC1)CC2 [Example 121] | 2 |
| 56 | 6800 | CN(C)CCN1CC[C@H](Nc2nc(N3CCOCC3)cc(-n3c(C(F)F)nc4ccccc43)n2)C1 [Example 45, 4-[2-(difluoromethyl)-1H-benzimidazol-1-yl]-N-{(3S)-1-[2-(dimethylamino)ethyl]pyrrolidin-3-yl}-6-morpholin-4-ylpyrimidin-2-amine dihydrochloride] |  |
| 4.9 | 8200 | FC(F)c1nc2ccccc2n1-c1cc(N2CCOCC2)nc(NCC2CCN(C3CCCCC3)CC2)n1 [Example 193] | 4.1 |
| 8.6 | 8000 | FC(F)c1nc2ccccc2n1-c1cc(N2CCOCC2)nc(NCC2CCN([C@H]3CC[C@@H](F)CC3)CC2)n1 [Example 43-2, 4-[2-(difluoromethyl)-1H-benzimidazol-1-yl]-N-{[1-(cis-4-fluorocyclohexyl)piperidin-4-yl]methyl}-6-(morpholin-4-yl)pyrimidin-2-amine dihydrochloride] | 3.1 |
| 12 | > 10000 | Cc1ccc2nc(C(F)F)n(-c3cc(N4CCOCC4)nc(NC[C@H]4CC[C@H](N5CCOCC5)CC4)n3)c2c1 [Example 132] | 1.5 |
| 8.5 | 2900 | COc1ccc(N2CCC(CNc3nc(N4CCOCC4)cc(-n4c(C(F)F)nc5ccccc54)n3)CC2)cc1 [Example 78] |  |
| 16 | > 10000 | CC(=O)N[C@H]1CCN([C@H]2CC[C@H](Oc3cc(-n4c(C(F)F)nc5ccccc54)nc(N4CCOCC4)n3)CC2)C1=O [Example 99] | 2.5 |
| 35 | 5000 | COC(=O)N[C@@H]1CCN([C@H]2CC[C@H](Nc3cc(-n4c(C(F)F)nc5ccccc54)nc(N4CCOCC4)n3)CC2)C1=O [Example 371] |  |
| 14 | 2900 | O=C1CC[C@@H](C(=O)N2CC(Nc3cc(-n4c(C(F)F)nc5ccccc54)nc(N4CCOCC4)n3)C2)N1 [A562] | 3.9 |
| 50 | 7700 | CC(C)(C)OC(=O)N1CCC[C@H](CNc2nc(N3CCOCC3)cc(-n3c(C(F)F)nc4ccccc43)n2)C1 [Example 18] |  |
| 27 | 3100 | CC(=O)N1CCC(CC(=O)N2CC[C@H](Nc3cc(-n4c(C(F)F)nc5ccccc54)nc(N4CCOCC4)n3)C2)CC1 [A463] | 1.4 |

| IC50 (human PI3Kδ enzyme) [nM] | IC50 (Human PI3Kα) [nM] | SMILES | IC50 [1] [nM] |
| --- | --- | --- | --- |
| 17 | 6700 | FC(F)c1nc2ccccc2n1-c1cc(N2CCOCC2)nc(NCC2CCN(C3CCC(F)(F)CC3)CC2)n1 [Example 36] | 6.8 |
| 20 | 1400 | O=C(C1CCOC1)N1CC[C@H](Oc2cc(-n3c(C(F)F)nc4ccccc43)nc(N3CCOCC3)n2)C1 (stereo partly drawn) [A449] | 0.4 |
| 3 | 8000 | O=C(CNC1CCCCC1)N[C@H]1CC[C@H](Oc2cc(-n3c(C(F)F)nc4ccccc43)nc(N3CCOCC3)n2)CC1 [Example 135] | 2.5 |
| 47 | 990 | CN(C)CC(=O)N1CCC(CNc2nc(N3CCOCC3)nc(-n3c(C(F)F)nc4ccccc43)n2)CC1 [Example 67] |  |
| 24 | > 10000 | CCOC(=O)N[C@@H]1CCN([C@H]2CC[C@H](Oc3cc(-n4c(C(F)F)nc5ccccc54)nc(N4CCOCC4)n3)CC2)C1=O [Example 423] | 3.1 |
| 27 | 6400 | FC(F)c1nc2ccccc2n1-c1cc(N2CCOCC2)nc(NCC23CCC(N4CCOCC4)(CC2)CC3)n1 [Example 120] |  |
| 18 | 5400 | Fc1ccccc1N1CCC(CNc2nc(N3CCOCC3)cc(-n3c(C(F)F)nc4ccccc43)n2)CC1 [Example 77] |  |
| 15 | 2000 | CN1CC(C(=O)N2CC[C@H](Nc3cc(-n4c(C(F)F)nc5ccccc54)nc(N4CCOCC4)n3)C2)CC1=O (stereo partly drawn) [A466] | 1.8 |
| 22 |  | CN(C)CC(=O)N1CC(Nc2nc(N3CCOCC3)cc(-n3c(C(F)F)nc4ccccc43)n2)C1 [Example 69] |  |
| 5.2 | 5900 | O=C(CNCC1CC1)N[C@H]1CC[C@H](Oc2cc(-n3c(C(F)F)nc4ccccc43)nc(N3CCOCC3)n2)CC1 [Example 133] |  |
| 12 | > 3000 | CC(C)(C)OC(=O)N1CCC(N2CCC(CNc3nc(N4CCOCC4)cc(-n4c(C(F)F)nc5ccccc54)n3)CC2)CC1 [Example 30] |  |
| 25 | 5400 | Fc1ccc(N2CCC(CNc3nc(N4CCOCC4)cc(-n4c(C(F)F)nc5ccccc54)n3)CC2)cc1 [Example 75] |  |
| 4.5 | > 3000 | FC(F)c1nc2ccccc2n1-c1cc(N[C@H]2CCC[C@@H](N3CCOCC3)C2)nc(N2CCOCC2)n1 [Example 123] |  |
| 36 | 980 | C[C@H]1COCCN1c1cc(-n2c(C(F)F)nc3ccccc32)nc(NCC2CCN(C(=O)OC(C)(C)C)CC2)n1 [Example 13] |  |
| 69 | 6200 | FC(F)c1nc2ccccc2n1-c1cc(N2CCOCC2)nc(NCCC2CCN(Cc3ccccc3)CC2)n1 [Example 25] |  |
| 29 | 2800 | CC(C)(C)OC(=O)N1CC[C@H](Nc2nc(N3CCOCC3)cc(-n3c(C(F)F)nc4ccccc43)n2)C1 [Example 1, tert-butyl (3S)-3-({4-[2-(difluoromethyl)-1H-benzimidazol-1-yl]-6-morpholin-4-ylpyrimidin-2-yl}amino)pyrrolidine-1-carboxylate] |  |
| 5.8 | 3300 | C[C@@H]1C[C@H](N2CCC(CNc3nc(N4CCOCC4)cc(-n4c(C(F)F)nc5ccccc54)n3)CC2)C[C@H](C)O1 [Example 194] |  |
| 35 | > 3000 | OC1CCC(N2CCC(CNc3nc(N4CCOCC4)cc(-n4c(C(F)F)nc5ccccc54)n3)CC2)CC1 (stereo not drawn) [Example 28] |  |
| 14 | 5000 | FC(F)c1nc2ccccc2n1-c1cc(N2CCOCC2)nc(NCC2CCN(c3ccccc3)CC2)n1 [Example 44, 4-[2-(difluoromethyl)-1H-benzimidazol-1-yl]-6-(morpholin-4-yl)-N-[(1-phenylpiperidin-4-yl)methyl]pyrimidin-2-amine dihydrochloride] |  |
| 60 | > 3000 | CN1CCC(CNc2cc(-n3c(C(F)F)nc4ccccc43)nc(N3CCOCC3)n2)CC1 [Example 4] |  |

Source: patent US8912180B2, “Heterocyclic compound” (Astellas Pharma Inc., priority 2010, dated 2014)
